The results in this text go back to patent EP1119551B1, “NAPHTHALENECARBOXAMIDES AS TACHYKININ RECEPTOR ANTAGONISTS” (AstraZeneca AB, priority 1998, dated 2000).

For one test, the target named is T1, NK2 receptor (Oryctolagus cuniculus, UniProt P79218).
T1 construct: The pulmonary arteries are isolated from the rest of the tissues, then rubbed over an intimal surface to remove the endothelium; from tissue; host or cells: rabbit pulmonary artery rings (endothelium removed)
T1 sequence (P79218 1-384): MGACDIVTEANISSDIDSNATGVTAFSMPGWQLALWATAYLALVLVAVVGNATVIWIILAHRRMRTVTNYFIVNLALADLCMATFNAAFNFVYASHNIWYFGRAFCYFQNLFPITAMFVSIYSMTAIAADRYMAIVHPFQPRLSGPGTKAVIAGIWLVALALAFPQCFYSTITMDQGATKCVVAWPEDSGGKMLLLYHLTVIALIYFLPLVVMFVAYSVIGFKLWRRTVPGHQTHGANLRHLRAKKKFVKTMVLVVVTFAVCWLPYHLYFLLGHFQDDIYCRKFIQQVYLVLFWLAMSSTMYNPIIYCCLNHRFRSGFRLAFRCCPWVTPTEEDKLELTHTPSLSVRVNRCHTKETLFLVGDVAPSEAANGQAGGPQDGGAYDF
Put plainly: Rabbit Pulmonary Artery: NK2 in vitro functional assay (Test D). The format is cell-based. The note with it: antagonism of agonist BANK, -log molar apparent dissociation constant KB, read-out: NK2 pKb (Test D) (converted).

The target in the next test is NK1 receptor (Oryctolagus cuniculus, UniProt G1SEI7). Nature of the test: Rabbit Pulmonary Artery: NK1 in vitro functional assay (Test C). It counts as cell-based. The note with it: antagonism of agonist ASMSP, -log molar apparent dissociation constant KB. As to the method:
Rabbit Pulmonary Artery: NK1 in vitro functional assay (Test C) […] Male New Zealand white rabbits are euthanized via i.v. injection into the ear vein with 60 mg/kg Nembutal (50 mg/mL). Preceding the Nembutal into the vein is Heparin (1000 units/mL) at 0.0025 mL/kg for anticoagulant purposes. The chest cavity is opened from the top of the rib cage to the sternum and the heart, lungs and part of the trachea are removed. The pulmonary arteries are isolated from the rest of the tissues and cut in half to serve as pairs. […] Responses are measured on a Grass polygraph via Grass FT-03 transducers. […] Percent inhibition is determined when a tested compound produces a statistically significant (p < 0.05) reduction of the total relaxation which is calculated using the total relaxation of the Papaverine as 100%. Potencies of the compounds are determined by calculating the apparent dissociation constants (KB) for each concentration tested using the standard equation: KB= [antagonist]/ (dose ratio - 1) [formula] where dose ratio = antilog[(agonist -log molar EC50 without compound) - (-log molar EC50 with compound)]. The KB values may be converted to the negative logarithms and expressed as -log molar KB (i.e. pKB). […] The EC50 values are converted to negative logarithms and expressed as -log molar EC50.

NK1 receptor, sequence (G1SEI7 1-407): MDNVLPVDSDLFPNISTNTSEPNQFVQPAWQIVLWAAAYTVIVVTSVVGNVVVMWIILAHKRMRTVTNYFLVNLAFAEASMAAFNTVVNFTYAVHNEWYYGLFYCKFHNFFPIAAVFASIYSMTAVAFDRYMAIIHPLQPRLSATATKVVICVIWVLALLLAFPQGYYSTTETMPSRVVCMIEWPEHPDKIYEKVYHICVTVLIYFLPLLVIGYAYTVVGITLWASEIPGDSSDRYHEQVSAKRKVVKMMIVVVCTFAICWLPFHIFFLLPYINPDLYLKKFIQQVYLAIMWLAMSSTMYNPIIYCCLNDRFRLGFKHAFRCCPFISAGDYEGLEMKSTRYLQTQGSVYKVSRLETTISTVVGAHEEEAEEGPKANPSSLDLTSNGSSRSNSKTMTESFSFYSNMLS
Description for NK2 receptor: The ability of a compound of the invention to antagonize the action of the agonist [β-ala8] […] Male New Zealand white rabbits are euthanized via i.v. injection into the ear vein with 60 mg/kg Nembutal (50 mg/mL). Preceding the Nembutal into the vein is Heparin (1000 units/mL) at 0.0025 mL/kg for anticoagulant purposes. The chest cavity is opened from the top of the rib cage to the sternum and a small incision is made into the heart so that the left and right pulmonary arteries can be cannulated with polyethylene tubing (PE260 and PE190 respectively). […] Responses are measured on a Grass polygraph via Grass FT-03 transducers. […]
Percent inhibition is determined when a tested compound produces a statistically significant (p < 0.05) reduction of the total contraction which is calculated using the total contraction of the BaCl2 as 100%. Potencies of the compounds are determined by calculating the apparent dissociation constants (KB) for each concentration tested using the standard equation: KB = [antagonist]/ (dose ratio - 1) [formula] where dose ratio = antilog[(agonist -log molar EC50 without compound) - (-log molar EC50 with compound)]. The KB values may be converted to the negative logarithms and expressed as -log molar KB (i.e. pKB). […] The EC50 values are converted to negative logarithms and expressed as -log molar EC50.

For `COc1c(C#N)cc2ccccc2c1C(=O)N(C)C[C@@H](CCN1CCC(c2ccccc2[S@+](C)[O-])CC1)c1ccc(Cl)c(Cl)c1.O=C(O)CC(O)(CC(=O)O)C(=O)O` [Example 1, N-[(S)-2-(3,4-Dichlorophenyl)-4-[4-[(S)-2-methylsulfinylphenyl]-1-piperidinyl]butyl]-N-methyl-2-methoxy-3-cyano-1-naphthamide citrate], on NK2 receptor, the Kb is 50.1 nM. Further, the “NK1 pKb (Test C)” value on NK1 receptor came to 9.5.
Consider `CCc1c(C#N)cc2ccccc2c1C(=O)N(C)C[C@@H](CCN1CCC(c2ccccc2[S@+](C)[O-])CC1)c1ccc(Cl)c(Cl)c1.O=C(O)CC(O)(CC(=O)O)C(=O)O` [Example 18, N-[(S)-2-(3,4-Dichlorophenyl)-4-[4-[(S)-2-methylsulfinylphenyl]-1-piperidinyl]butyl]-N-methyl-3-cyano-2-ethyl-1-naphthamide citrate], for which the Kb at NK2 receptor was 50.1 nM. Besides, the “NK1 pKb (Test C)” value at NK1 receptor turned out to be 9.6.
